According to US20090311237A1, “Combination therapy using a soluble hyaluronidase and a bisphosphonate” (priority 2008, published 2009):

How the values were obtained:
Sprague Dawley rats [1] = assay: Injection site reaction recovery study (10 days) after ID ZA with or without rHuPH20; type: in vivo, rat
Experimental: Sprague Dawley rats were randomized to three groups of 4 rats each. ZA (0.1 ml at 0.1 mg/mL), either alone or supplemented with either 130 U/mL or 100,000 U/mL rHuPH20, was given via intradermal injection. Injection sites were observed and measured daily. Animals were sacrificed at 10 days post-injection and skin from lesion areas were dissected, fixed in 10% buffered formalin, embedded in paraffin and stained with H&E.

[2] = Urinary excretion of unchanged ZA in pigs; type: in vivo, pig; conditions: for Dose Amt 2 hr, Mean / Dose Amt 2 hr, Median: n 4; for mean percent of dose excreted unchanged in urine: pig, first 2 hours post dose
Experimental: Following ZA dose administration, serial blood samples were collected via vascular access ports (VAPs) for serum preparation and determination of ZA concentrations. […] Urine samples were also collected to compare excretion characteristics between IV and SC routes of administration.
Serum concentration of ZA was determined using a qualified LC-MS-MS assay after derivatization with diazomethane (Zhu, L S et al. (2006) Rapid Commun. Mass Spectrom. 20: 3421-3426; “Qualification Data of An LC-MS/MS Method for the Determination of Zoledronate in Porcine Serum”, MDS Pharma Services Study No. AA43671-01, Report Date 14 Sep. 2007). The assay range was from 2.0 to 400 ng/mL with a lower limit of quantitation (LLOQ) at 2.0 ng/mL. Urine concentration of ZA was determined by a similar well qualified LC-MS-MS method (“Qualification Data of An LC-MS/MS Method for the Determination of Zoledronate in Porcine Urine”, MDS Pharma Services Study No. AA43671-02, Report Date 14 Sep. 2007) with an assay LLOQ at 10 ng/mL.
Amount of ZA excreted unchanged in urine was determined for the collection interval from dosing to 2-hour post dose and compared between dose routes and co-administration with rHuPH20.
Urine sample volumes and concentration of ZA in the samples were used to calculate the amount of unchanged ZA excreted via the kidneys. Since continuous collection was halted at 2 hours post dose, the percent of administered ZA dose that were renally excreted was not determined. However, the percent of dose excreted within the 2-hour collection interval was estimated with the relationship that the systemically available SC ZA dose is equal to: […]

[3] = IV infusion; cited from earlier work
Sprague Dawley rats [4] = assay: Semi-quantitative histopathology of skin at injection site after ID zoledronic acid with or without rHuPH20; type: in vivo; parameters: key: —: Dash indicates no incidence of indicated finding; conditions: rat ID, 4 days
Experimental: Nine to ten week old female Sprague Dawley rats, having approximate body weight of 200-250 grams, were employed for the study. One day prior to injection, rats were shaved and hair on the back and flank area were removed by Nair® cream (exposure less than 1 min to depilation cream) followed by deep wash with warm tap water. On the day of dosing, all rats were injected intradermally in flank area (one or two injection spots per side), with 0.1 or 0.2 mL as indicated of zoledronic acid solution, with or without rHuPH20, at each corresponding concentration as shown in study design table. Injection site appearance was observed and quantified by blind assessment each day following the injection until the end of the study, at which time animals were sacrificed and the skin around the dosing area as well as a part of the skin that was not effected by the dosing were collected and fixed in 10% neutral buffered formalin (NBF) and further embedded in paraffin, 5 μm sections were cut for H&E stain and histopathology evaluation.
Lesion area was calculated by the following formula: W×L×¼π. Quantitative results were analyzed using one-way analysis of variance (ANOVA) method, followed by Dunnett's comparison method (Prizm 4 program). […] Histopathologic findings were characterized by semi-quantitative analysis of necrosis and infiltration in the skin tissue. […]

[5] = Study Group 1, IV infusion, ZA […], dosing to 2 h post dose, n 3
[6] = Study Group 2, SC, […] dose only
[7] = Study Group 2, SC, n 5, dosing to 2 h post dose
[8] = Study Group 3, SC with rHuPH20, […] dose only
[9] = Study Group 3, SC with rHuPH20, n 4, dosing to 2 h post dose

SMILES: O=P(O)(O)C(O)(Cn1ccnc1)P(=O)(O)O [ZA, 1-hydroxy-2-(1H-imidazol-1-yl)ethylidene-1,1-bisphosphonic acid]
- time to peak lesion area (Sprague Dawley rats [1]; rat ID 0.1 ml, ZA 0.1 mg/mL alone or with 130 or 100,000 U/mL rHuPH20): 3 days
- histopathologic findings (Sprague Dawley rats [1]; rat ID, ZA 0.1 mg/mL alone, 10 days post-injection): scabbing, epidermal necrosis, infiltration, vessel dilation and hemorrhage
- Dose Excreted, Mean [2, 5]: 11.40%
- Dose Excreted, Median [2, 5]: 10.71%
- Dose Amt 2 hr, Mean [2, 6]: 2.87 mg
- Dose Amt 2 hr, Median [2, 6]: 2.88 mg
- Dose Excreted, Mean [2, 7]: 9.45%
- Dose Excreted, Median [2, 7]: 6.73%
- Dose Amt 2 hr, Mean [2, 8]: 3.00 mg
- Dose Amt 2 hr, Median [2, 8]: 3.03 mg
- Dose Excreted, Mean [2, 9]: 10.66%
- Dose Excreted, Median [2, 9]: 12.04%
- Dose Amt 2 hr (SC AUC(0-2 h) × CL × body weight) ([2]; pig 56, Study Group 3, SC with rHuPH20, ZA […]): 3.06 mg
- Dose Excreted (unchanged in urine) ([2]; pig 57, Study Group 1, IV infusion, ZA […], dosing to 2 h post dose): 13.23%
- Dose Amt 2 hr (SC AUC(0-2 h) × CL × body weight) ([2]; pig 58, Study Group 3, SC with rHuPH20, ZA […]): 3.03 mg
- Dose Excreted (unchanged in urine) ([2]; pig 58, Study Group 3, SC with rHuPH20, ZA […], dosing to 2 h post dose): 0.41%
- Dose Amt 2 hr (SC AUC(0-2 h) × CL × body weight) ([2]; pig 59, Study Group 2, SC, ZA […]): 1.44 mg
- Dose Excreted (unchanged in urine) ([2]; pig 59, Study Group 2, SC, ZA […], dosing to 2 h post dose): 5.10%
- Dose Amt 2 hr (SC AUC(0-2 h) × CL × body weight) ([2]; pig 60, Study Group 2, SC, ZA […]): 3.28 mg
- Dose Excreted (unchanged in urine) ([2]; pig 60, Study Group 2, SC, ZA […], dosing to 2 h post dose): 6.73%
- Dose Excreted (unchanged in urine) ([2]; pig 61, Study Group 1, IV infusion, ZA […], dosing to 2 h post dose): 10.71%
- Dose Amt 2 hr (SC AUC(0-2 h) × CL × body weight) ([2]; pig 62, Study Group 2, SC, ZA […]): 2.42 mg
- Dose Excreted (unchanged in urine) ([2]; pig 62, Study Group 2, SC, ZA […], dosing to 2 h post dose): 20.08%
- Dose Amt 2 hr (SC AUC(0-2 h) × CL × body weight) ([2]; pig 64, Study Group 3, SC with rHuPH20, ZA […]): 2.86 mg
- Dose Excreted (unchanged in urine) ([2]; pig 64, Study Group 3, SC with rHuPH20, ZA […], dosing to 2 h post dose): 12.29%
- Dose Amt 2 hr (SC AUC(0-2 h) × CL × body weight) ([2]; pig 66, Study Group 3, SC with rHuPH20, ZA […]): 1.22 mg
- Dose Excreted (unchanged in urine) ([2]; pig 66, Study Group 3, SC with rHuPH20, ZA […], dosing to 2 h post dose): 18.13%
- Dose Excreted (unchanged in urine) ([2]; pig 67, Study Group 1, IV infusion, ZA […], dosing to 2 h post dose): 10.25%
- Dose Amt 2 hr (SC AUC(0-2 h) × CL × body weight) ([2]; pig 68, Study Group 3, SC with rHuPH20, ZA […]): 3.03 mg
- Dose Excreted (unchanged in urine) ([2]; pig 68, Study Group 3, SC with rHuPH20, ZA […], dosing to 2 h post dose): 11.79%
- Dose Amt 2 hr (SC AUC(0-2 h) × CL × body weight) ([2]; pig 69, Study Group 2, SC, ZA […]): 2.83 mg
- Dose Excreted (unchanged in urine) ([2]; pig 69, Study Group 2, SC, ZA […], dosing to 2 h post dose): 10.19%
- Dose Amt 2 hr (SC AUC(0-2 h) × CL × body weight) ([2]; pig 70, Study Group 2, SC, ZA […]): 2.93 mg
- Dose Excreted (unchanged in urine) ([2]; pig 70, Study Group 2, SC, ZA […], dosing to 2 h post dose): 5.17%
- mean percent of dose excreted unchanged in urine ([2]; Study Group 1 (IV […])): 11.40%
- mean percent of dose excreted unchanged in urine ([2]; Study Group 2 (SC ZA without rHuPH20)): 9.45%
- patients with skin irritation at the injection site [3]: 1%
- Necrosis: Superficial dermis (Sprague Dawley rats [4]; ZA alone 0.05 mg/mL): —
- Necrosis: Superficial dermis (Sprague Dawley rats [4]; ZA alone 0.1 mg/mL): —
